Reference: article PMC4948780, “PARP Inhibitors in Clinical Use Induce Genomic Instability in Normal Human Cells” (PLoS ONE, 2016)

What was measured:
EBV-BL = assay: Chromosomal aberrations on metaphase spreads (Giemsa); type: cell-based, human; conditions: 1 μM, 24 hrs, 100 metaphases
Description: (§1) To prepare metaphase spreads, exponentially growing cells were treated with 0.1–0.3 μg/ml of colcemid for 1–6 hr. Cells were collected and incubated in hypotonic solution (0.56% KCl), fixed in methanol: acetic acid (3:1), spotted to slides and air-dried. To measure chromosomal aberrations, the slides were stained with 2% Giemsa/Sorensen’s buffer. To visualize SCEs, the doubling time for each cell type was determined. Cells were incubated with 10 μM BrdU for two cell cycles. After metaphase spreads were prepared, the slides were treated with 0.5 μg/ml Hoechst 33258. The slides were exposed to black light for 20–60 min, incubated at 60°C for 2 hr, and stained in 4–10% Giemsa/Sorensen’s buffer.

HMEC-hTERT = assay: as above; type: cell-based, human; conditions: 1 μM, 24 hrs
Description: as §1

MCF-10A = assay: as above; type: cell-based, human; conditions: 1 μM, 24 hrs
Description: as §1

MDA-MB-468 = assay: as above; type: cell-based, human; conditions: 1 μM, 24 hrs
Description: as §1

primary T cell 1 = assay: as above; type: cell-based, human; conditions: 1 μM, 24 hrs
Description: as §1

WT E14 mES cells = assay: Clonogenic survival assay, mES cells; type: cell-based; conditions: Mus musculus, read-out: IC50 (clonogenic survival)
Source text: Human mammary epithelial cell lines used included non-tumorigenic diploid MCF-10A, HMEC-hTERT and tumorigenic MDA-MB-468 (basal) and MCF-7 (luminal). […] Blood samples were obtained from normal donor participants. The participants provided written informed consent to IRB protocol #95–054 approved by the Institutional Review Board at MSKCC. The original signed consent is then sent to the research participant’s medical record and a copy of the consent is given to the participant. The EBV-transformed B-lymphocyte cell line (EBV-BL) was generated by transformation of peripheral blood mononuclear cells (PBMC) with the B95.8 strain of EBV, as previously described. Primary T cells were generated from PBMC from two normal donors by non-specific activation with phytohemagglutinin and cultured in RPMI1640 and human serum AB for 4–14 days before use. E14 mES cell line was provided by M. Hooper, Brca1^-/- 236.44 mES cell line was provided by B. H. Koller, Brca2^lex1/lex2 mES cell line was provided by P. Hasty and Lexicon Genetics. E14 wild-type, Brca1^-/- 236.44, and Brca2^lex1/lex2 mES cell lines were cultured in standard ES media. Brca1^-/- 236.44 cells express a BRCA1 peptide deleted for sequences encoded by exon 11 [52], while Brca2^lex1/lex2 cells express a BRCA2 peptide deleted for the terminal exon 27 [53]. […] Veliparib and BSI-201 were purchased from Chemie Tek. The compounds were dissolved in DMSO and PBS. For clonogenic survival assays, MCF-10A (1000 cells), HMEC-hTERT (1000 cells), MDA-MB-468 (1500 cells) and mouse ES cell (2000 cells) were seeded, vehicle control or inhibitors were added at the indicated concentration 24 hours after seeding and changed every three days for continuous treatment. At 7–14 days, colonies were fixed with methanol and stained with Giemsa. For EBV-BL (6 × 10^6) and primary T cells (3.6 × 10^6) were continuously exposed to the indicated concentration of drug for 10 days at 0.6 × 10^6 cells/ml. Viable cells were scored by trypan blue exclusion.

[1] = 100 metaphases, radial and telomere association counted as two

For `O=C(c1cc(Cc2n[nH]c(=O)c3ccccc23)ccc1F)N1CCN(C(=O)C2CC2)CC1` [olaparib], the chromatid-type radial chromosome (EBV-BL) was 1, the chromatid-type telomere association (EBV-BL) was 0 and the chromosome-type dicentric (EBV-BL) was 0. The chromosome-type gap/break (EBV-BL) was 1, the total chromatid-type aberrations (EBV-BL; radial and telomere association counted as two) was 44 and the “total chromatid-type aberrations / metaphase (mean ± SEM)” value (HMEC-hTERT) was 0.30 ± 0.07. It also gave a chromatid-type radial chromosome (HMEC-hTERT; 100 metaphases) of 0, a chromatid-type telomere association (HMEC-hTERT; 100 metaphases) of 0 and a chromosome-type dicentric (HMEC-hTERT; 100 metaphases) of 0. For the same compound, the chromosome-type gap/break (HMEC-hTERT; 100 metaphases) was 4, the total chromatid-type aberrations (HMEC-hTERT; [1]) was 30 and the “total chromatid-type aberrations / metaphase (mean ± SEM)” value (MCF-10A) was 0.22 ± 0.05. For the same compound, the chromatid-type radial chromosome (MCF-10A; 100 metaphases) was 0, the chromatid-type telomere association (MCF-10A; 100 metaphases) was 1 and the chromosome-type dicentric (MCF-10A; 100 metaphases) was 0. For the same compound, the chromosome-type gap/break (MCF-10A; 100 metaphases) was 3, the total chromatid-type aberrations (MCF-10A; [1]) was 22 and the “total chromatid-type aberrations / metaphase (mean ± SEM)” value (MDA-MB-468) was 0.67 ± 0.13. It also gave a chromatid-type radial chromosome (MDA-MB-468; 100 metaphases) of 5, a chromatid-type telomere association (MDA-MB-468; 100 metaphases) of 3 and a chromosome-type dicentric (MDA-MB-468; 100 metaphases) of 4. The chromosome-type gap/break (MDA-MB-468; 100 metaphases) was 5, the total chromatid-type aberrations (MDA-MB-468; [1]) was 67 and the “total chromatid-type aberrations / metaphase (mean ± SEM)” value (primary T cell 1) was 0.44 ± 0.07. For the same compound, the chromatid-type radial chromosome (primary T cell 1; 100 metaphases) was 2, the chromatid-type telomere association (primary T cell 1; 100 metaphases) was 0 and the chromosome-type dicentric (primary T cell 1; 100 metaphases) was 3. It also gave a chromosome-type gap/break (primary T cell 1; 100 metaphases) of 0, a total chromatid-type aberrations (primary T cell 1; [1]) of 44 and an IC50 (WT E14 mES cells) of 0.6 µM.
